# Measured values from PMC7481357, “N-terminal Myristoylation Enhanced the Antimicrobial Activity of Antimicrobial Peptide PMAP-36PW” (Frontiers in Cellular and Infection Microbiology, 2020).
# No end group written: not given here.
# Columns and labels:
# S. aureus ATCC 25923 [1] = format: cell-based, Staphylococcus aureus; conditions: for MICs: ATCC 25923, 18 h; for MICs of different classes of antibiotics: S. aureus ATCC 25923, * indicates resistant (CLSI, 2020)
# Description: (§1) The MICs of Myr-36PW in vitro were measured through microdilution in accordance with the Clinical and Laboratory Standards Institute (CLSI, [2020]). The bacterial cells were cultured for 12 h at 37°C in the appropriate medium and then diluted to 1 × 10^6 CFU/mL. Equal volumes (100 μL) of bacterial cell suspension and two-fold serially diluted different concentrations peptides (0.0039–256 μg/mL) were added to each well of the sterile 96-well plate. The samples were incubated for 18 h at 37°C. After incubation, the MICs of the peptides were determined by evaluating the growth based on the OD600 of the cultures.
# [2] = tested on: L. monocytogenes CICC 21634; format: cell-based, Listeria monocytogenes; conditions: for MICs: CICC 21634, 18 h; for MICs of different classes of antibiotics: L. monocytogenes CICC 21634, * indicates resistant (CLSI, 2020)
# Description: as §1
# S. typhimurium SL 1344 = format: cell-based, Salmonella typhimurium; conditions: for MICs: SL 1344, 18 h; for MICs of different classes of antibiotics: S. typhimurium SL 1344, * indicates resistant (CLSI, 2020)
# Description: as §1
# P. aeruginosa GIM 1.551 [3] = format: cell-based, Pseudomonas aeruginosa; conditions: for MICs: GIM 1.551, 18 h; for MICs of different classes of antibiotics: P. aeruginosa GIM 1.551, * indicates resistant (CLSI, 2020)
# Description: as §1
# P. aeruginosa GIM 1.551 [4] = format: cell-based, Pseudomonas aeruginosa; conditions: GIM 1.551, 1 h
# Description: (§2) The effects of abiotic factors on the antibacterial activity of Myr-36PW were investigated by MIC assay (Xi et al., [2013]; Zhong et al., [2019]). S. aureus ATCC 25923 and P. aeruginosa GIM 1.551 overnight cultures were diluted to 1 × 10^6 CFU/mL, and the MICs of peptides in MHB with different concentration of physiological salts (150 mM NaCL, 2 mM CaCL2) were determined. And after the peptides incubated in 10% mice serum for 1 h at 37°C, MICs of peptides against S. aureus ATCC 25923 and P. aeruginosa GIM 1.551 were determined. The MICs in MHB in the absence of physiological salts and serum were used as the control group.
# (§3) Salt and serum stability in vitro were indicated by MIC assay. The concentrations of NaCl and CaCl2 were physiological concentration. 10% mice serum was inactivated by heat treatment for 15 min at 60 ℃。The control group was measured in the absence of physiological salts or serum in MHB.
# S. aureus ATCC 25923 [5] = format: cell-based, Staphylococcus aureus; conditions: ATCC 25923, 1 h
# Description: as §2, §3
Molecule,MICs (S. aureus ATCC 25923 [1]) [µg/mL],MICs [2] [µg/mL],MICs (S. typhimurium SL 1344) [µg/mL],MICs (P. aeruginosa GIM 1.551 [3]) [µg/mL],"MICs, CaCl2 (P. aeruginosa GIM 1.551 [4]) [µg/mL]","MICs, Control (P. aeruginosa GIM 1.551 [4]) [µg/mL]","MICs, NaCl (P. aeruginosa GIM 1.551 [4]) [µg/mL]","MICs, Serum (P. aeruginosa GIM 1.551 [4]) [µg/mL]",MICs of different classes of antibiotics (S. aureus ATCC 25923 [1]),MICs of different classes of antibiotics [2],MICs of different classes of antibiotics (S. typhimurium SL 1344),MICs of different classes of antibiotics (P. aeruginosa GIM 1.551 [3]),"MICs, CaCl2 (S. aureus ATCC 25923 [5]) [µg/mL]","MICs, NaCl (S. aureus ATCC 25923 [5]) [µg/mL]","MICs, Serum (S. aureus ATCC 25923 [5]) [µg/mL]"
GRFRRLRKKTRKRLKKIGKVLKWIWWIVGSIPLGCG [PMAP-36PW],0.0078,2,16,0.5,1,1,1,1,–,–,–,–,–,–,–
NCC[C@H](O)C(=O)N[C@@H]1C[C@H](N)[C@@H](O[C@H]2O[C@H](CN)[C@@H](O)[C@H](O)[C@H]2O)[C@H](O)[C@H]1O[C@H]1O[C@H](CO)[C@@H](O)[C@H](N)[C@H]1O [Amikacin],–,–,–,–,–,–,–,–,4 µg/mL,128* μg/mL,32 µg/mL,>128* μg/mL,–,–,–
CNC(C)C1CCC(N)C(OC2C(N)CC(N)C(OC3OCC(C)(O)C(NC)C3O)C2O)O1 (stereo not drawn) [Gentamicin],–,–,–,–,–,–,–,–,4 µg/mL,32* μg/mL,8 µg/mL,128* μg/mL,–,–,–
GRFRRLRKKTRKRLKKIGKVLKWIPPIVGSIPLGCG [PMAP-36],0.0156,4,32,1,2,2,2,2,–,–,–,–,0.0625,0.0625,0.0625
Colistin,–,–,–,–,–,–,–,–,16* μg/mL,8 µg/mL,2 µg/mL,4* μg/mL,–,–,–
Polymyxin B,–,–,–,–,–,–,–,–,16* μg/mL,8 µg/mL,2 µg/mL,4* μg/mL,–,–,–
CC[C@H]1OC(=O)[C@H](C)[C@@H](O[C@H]2C[C@@](C)(OC)[C@@H](O)[C@H](C)O2)[C@H](C)[C@@H](O[C@@H]2O[C@H](C)C[C@H](N(C)C)[C@H]2O)[C@](C)(O)C[C@@H](C)CN(C)[C@H](C)[C@@H](O)[C@]1(C)O [Azithromycin],–,–,–,–,–,–,–,–,64* μg/mL,64* μg/mL,>128* μg/mL,128* μg/mL,–,–,–
